Reference: paper PMC5579575, “Study of Alzheimer’s Disease-Related Biophysical Kinetics with a Microslit-Embedded Cantilever Sensor in a Liquid Environment” (Sensors (Basel, Switzerland), 2017)

Assays:
Aβ peptides = conditions: conventional surface plasmon resonance (SPR), ref [27]; cited from earlier work
Protocol: Meanwhile, Equation (5) predicts the hyperbolic plot of fractional saturation ([AB]/[B]) vs. Aβ concentration. This curve follows isotherms for relatively obscure thermodynamic reasons. […] The acquired value is consistent with those of previous studies (1.2 nM) using conventional surface ...

[1] = test system: monoclonal 6E10 antibody (mAb); experiment: Quantitative detection of Aβ42 with mAb-immobilized slit cantilever (resonant frequency shift); type: binding; conditions: for frequency shift (average): in 10 mM PBS, 30 min, rinsed with PBS, mAb 10 μg/mL immobilized
Protocol: To detect the target molecules, a commercial monoclonal 6E10 antibody (mAb, 10 μg/mL, Covance, Princeton, NJ, USA) was immobilized on the cantilever surfaces by using a conventional coupling method. The mAb is known to include a specific binding ligand with the first 1–16 sequence of human Aβ peptides. Prior to antibody immobilization, the slit cantilever with a 50 nm thick Au surface was cleaned with piranha solution (a 4:1 ratio of H2SO4 to H2O2) and rinsed with deionized water (DI). In addition, 10 mM of 11-Mercaptoundecanoic acid (11-MUC, Sigma-Aldrich, St. Louis, MO, USA) diluted in ethanol was treated for 12 h on the Au surface of the sensor to establish a self-assembled monolayer. The MUC-modified slit cantilever was immersed in a mixture of 1-ethyl-3-(3-dimethylaminopropyl) carbodiimide (EDC, 80 mM, Sigma-Aldrich) and N-hydroxysuccinimide (NHS, 20 mM, Sigma-Aldrich) dissolved for 2 h in 10 mM of phosphate-buffered solution (PBS, pH = 7.4). Then, mAb, which was diluted as 10 µg/mL in 10 mM PBS, was immobilized on the functionalized surface of the slit cantilever for 2 h, followed by rinsing with PBS and DI.
To evaluate the sensing performance of the slit cantilever in a liquid environment, quantification of the synthetic Aβ42 peptide, which has an identical sequence of 42-residue amino acids associated with human AD, was investigated in a physiological-level concentration. Prior to conducting biomolecular interactions, a drift of resonant frequency was verified and stabilized until steady state (Figure S2). The resonance responses reached its steady state within 200 min and the frequency maintained for 60 min with fluctuations up to 4 Hz which can be regarded as a noise level. Detection of target molecules with the slit cantilever is based on the capturing by immobilized mAb on the cantilever beam. It occurs in the measurement of the frequency shift due to mass loading on the surface. Firstly, the specific antibody (mAb) of 10 μg/mL was chemically immobilized on the 60 μm × 280 μm dimension of the Au surface (50 nm thickness) of the slit cantilever. The Aβ42 peptide was diluted with a ten-fold difference from 10 pg/mL to 1 μg/mL in 10 mM PBS. The prepared Aβ42 solution was individually introduced into the slit cantilever for 30 min, followed by rinsing with PBS. The changes of resonant frequencies in PBS were measured before and after the recognition interactions between mAb and target analytes. The resonant frequency decreased according to the concentration increment of target analytes owing to mass adsorption of Aβ42 to the specific binding site of the immobilized mAb. The average values of the frequency shifts were measured as −15.5, −56.5, −119.5, −472.5, −774 and −799 Hz for the concentrations from 10 pg/mL to 1 μg/mL, respectively. As noted earlier, these responses were satisfied with at least three-sigma significance in terms of the signal-to-noise ratio of the sensors.

[2] = molecular target: monoclonal 6E10 antibody (mAb); experiment: Binding affinity (KD) of Aβ42-mAb by Langmuir isotherm fit of slit cantilever responses; conditions: global fit of Langmuir isotherm (χ^2 = 0.010958), 1:1 binding; fractional saturation vs. Aβ concentration; 1 μg/mL assumed fully saturated; PBS; read-out: equilibrium dissociation constant (KD)
Protocol: To detect the target molecules, a commercial monoclonal 6E10 antibody (mAb, 10 μg/mL, Covance, Princeton, NJ, USA) was immobilized on the cantilever surfaces by using a conventional coupling method. The mAb is known to include a specific binding ligand with the first 1–16 sequence of human Aβ peptides. Prior to antibody immobilization, the slit cantilever with a 50 nm thick Au surface was cleaned with piranha solution (a 4:1 ratio of H2SO4 to H2O2) and rinsed with deionized water (DI). In addition, 10 mM of 11-Mercaptoundecanoic acid (11-MUC, Sigma-Aldrich, St. Louis, MO, USA) diluted in ethanol was treated for 12 h on the Au surface of the sensor to establish a self-assembled monolayer. […]
To evaluate the sensing performance of the slit cantilever in a liquid environment, quantification of the synthetic Aβ42 peptide, which has an identical sequence of 42-residue amino acids associated with human AD, was investigated in a physiological-level concentration. […] The changes of resonant frequencies in PBS were measured before and after the recognition interactions between mAb and target analytes. […] The average values of the frequency shifts were measured as −15.5, −56.5, −119.5, −472.5, −774 and −799 Hz for the concentrations from 10 pg/mL to 1 μg/mL, respectively. […]

| Substance | Kd (Aβ peptides) | frequency shift (average) ([1]; 10 pg/mL Aβ42) | frequency shift (average) ([1]; 100 pg/mL Aβ42 (ten-fold dilution series 10 pg/mL to 1 μg/mL)) | frequency shift (average) ([1]; 1 ng/mL Aβ42 (ten-fold dilution series 10 pg/mL to 1 μg/mL)) | frequency shift (average) ([1]; 10 ng/mL Aβ42 (ten-fold dilution series 10 pg/mL to 1 μg/mL)) | frequency shift (average) ([1]; 100 ng/mL Aβ42 (ten-fold dilution series 10 pg/mL to 1 μg/mL)) | frequency shift (average) ([1]; 1 μg/mL Aβ42) | sensitivity ([1]; dynamic range 100 pg/mL to 100 ng/mL Aβ42, logarithmic concentration) | Kd [2] | resonant frequency response, negative control ([1]; PSA protein as control experiment, mAb-immobilized cantilever) |
| --- | --- | --- | --- | --- | --- | --- | --- | --- | --- | --- |
| Aβ42: synthetic Aβ42 peptide, which has an identical sequence of 42-residue amino acids associated with human AD (Sigma-Aldrich) | 1.2 nM | −15.5 Hz | −56.5 Hz | −119.5 Hz | −472.5 Hz | −774 Hz | −799 Hz | 330 Hz/decade | 1.75 nM |  |
| PSA: prostate cancer antigen (PSA) protein introduced as a control experiment |  |  |  |  |  |  |  |  |  | no obvious responses were observed |
